Drawing on patent US11178870B2 (priority 2017, dated 2021), this text covers pest or weed control for eight compounds.

Where two headings read alike, the source gives them in different places.

For one experiment, the system named is Phytophthora infestans. Briefly: whole plant or invertebrate. The class given is in vivo. Particulars: in Solanum lycopersicum, read-out: control value, Test F (late blight on tomato).
Another experiment has as its system Plasmopara viticola. Briefly: Test Example G: Downy mildew on vine. Particulars: 250 ppm sprayed (2.5 ml/pot) before inoculation, assessed 7 to 10 days after inoculation, read-out: control value, Test G (downy mildew on vine). The class given is in vivo.
For a further experiment, the system named is Alternaia brassicicola. Briefly: Test Example C: Alternaria sooty spot on cabbage. Format: in vivo. The following applies: Brassica oleracea; Table 7, Test C; read-out: control value, Test C (Alternaria sooty spot on cabbage).
The subject of another experiment is Puccinia recondita. The experiment in a line: Test Example E: Brown rust on wheat. Format: in vivo. Particulars: Table 7, Test E, read-out: control value, Test E (brown rust on wheat).
In experiment [1] the test system is Blumeria graminis f. sp. hordei. Briefly: Test Example D: Powdery mildew on barley. The class given is in vivo. Particulars: Table 7, Test D, read-out: control value, Test D (powdery mildew on barley).
In a further experiment the test system is Magnaporthe grisea. The experiment in a line: whole plant or invertebrate. The class given is in vivo. Particulars: Pyricularia oryzae, in Oryza sativa, read-out: control value, Test A (blast on rice).
Experiment [2] deals with Colletotrichum orbiculare. The experiment in a line: whole plant or invertebrate. Particulars: in Cucumis sativus, read-out: control value, Test H (anthracnose on cucumber).
Procedure: Seeds of a test plant (cucumber variety: Sagami Hanjiro) were planted and cultivated until the first leaf appeared. In the test, the compounds of the present invention were dissolved into a dimethyl sulfoxide-methanol mixture solution (volume ratio: 9/1), and the resultant solutions were diluted with well water to a concentration of 250 ppm. The thus-obtained dilutions were sprayed to the test plant (2.5 ml/pot). After the dilutions dried, a conidial suspension (2-4×10^5 conidia/ml) of Colletotrichum orbiculare was inoculated to the plant by spraying. After the inoculation, the plant was kept in a mist chamber at room temperature of 20 to 23° C. for about 24 hours to promote the onset of disease. The disease development was investigated 6 to 10 days after the inoculation, and the effectiveness of the dilutions was evaluated.
Disease development in Test Example described above was evaluated in increments of 0.05 by setting 0 as no incidence of disease and 3 as disease development in a plant of untreated group. In addition, control values were calculated using the following equation based on disease development.
Control value=100 {1−(n/3)}
n=Disease development of each treated groups
The test system of a further experiment is Botrytis cinerea. Briefly: Test Example B: Gray mold on tomato. Format: in vivo. The following applies: Table 7, Test B, read-out: control value, Test B (gray mold on tomato).

With `CCn1c(-c2c(F)cc(F)cc2F)c(-n2cc(Cl)cn2)cc(C)c1=O` [compound 206, 5-(4-chloro-1H-pyrazol-1-yl)-1-ethyl-3-methyl-6-(2,4,6-trifluoro-phenyl)pyridin-2(1H)-one], the pest or weed control at 250 µg/mL was under 50% with Phytophthora infestans; over 50% in the experiment on Alternaia brassicicola; over 50% with Puccinia recondita; over 50% in experiment [1]; over 50% in the experiment on Magnaporthe grisea; over 50% in the experiment with Botrytis cinerea. In addition, the pest or weed control at 250 ppm was under 50% in the experiment with Plasmopara viticola and over 50% in experiment [2].
Regarding `C#Cc1cc(-n2cc(Cl)cn2)c(-c2c(F)cc(F)cc2F)n(CC)c1=O` [compound 223, 5-(4-chloro-1H-pyrazol-1-yl)-1-ethyl-3-ethynyl-6-(2,4,6-trifluorophenyl)pyridin-2(1H)-one], the pest or weed control at 250 µg/mL in the experiment with Phytophthora infestans was under 50%; in the experiment with Alternaia brassicicola, over 50%; in the experiment on Puccinia recondita it was under 50%; in experiment [1] it was under 50%; with Magnaporthe grisea, over 50%; in the experiment on Botrytis cinerea, under 50%. In addition, the pest or weed control at 250 ppm in the experiment on Plasmopara viticola was over 50%; in experiment [2] it was under 50%.
For `CCn1c(-c2c(F)cc(F)cc2F)c(-n2cc(Cl)cn2)cc(C(F)F)c1=O` [compound 266, 5-(4-chloro-H-pyrazol-1-yl)-3-(difluoromethyl)-1-ethyl-6-(2,4,6-trifluorophenyl)pyridin-2(1H)-one], the pest or weed control at 250 µg/mL in the experiment with Phytophthora infestans was under 50%; with Alternaia brassicicola, over 50%; with Puccinia recondita it was over 50%; in experiment [1], over 50%; in the experiment on Magnaporthe grisea, over 50%; in the experiment on Botrytis cinerea, over 50%. For the same compound, the pest or weed control at 250 ppm (in the experiment with Plasmopara viticola; in experiment [2]) was over 50% each time.
Regarding `CCn1c(-c2c(F)cc(OCCOC)cc2F)c(-n2cc(Cl)cn2)cc(Cl)c1=O` [compound 204, 3-chloro-5-(4-chloro-1H-pyrazol-1-yl)-6-(2,6-difluoro-4-(2-methoxyethoxy)phenyl)-1-ethylpyridin-2(1H)-one], the pest or weed control at 250 µg/mL in the experiment with Phytophthora infestans is under 50%; in the experiment on Alternaia brassicicola, over 50%; in the experiment on Puccinia recondita it was under 50%; in experiment [1] it was under 50%; in the experiment on Magnaporthe grisea, under 50%; in the experiment on Botrytis cinerea, over 50%. The figures for the pest or weed control at 250 ppm (in the experiment with Plasmopara viticola; in experiment [2]) were under 50% and over 50%, respectively.
Consider `CCn1c(-c2ccc(F)cc2F)c(-n2ncc(C)c2Cl)cc(Br)c1=O` [compound 228, 3-bromo-5-(5-chloro-4-methyl-1H-pyrazol-1-yl)-6-(2,4-difluoro-phenyl)-1-ethylpyridin-2(1H)-one], for which the pest or weed control at 250 µg/mL in the experiment on Phytophthora infestans is under 50%; in the experiment with Alternaia brassicicola it was over 50%; in the experiment on Puccinia recondita, over 50%; in experiment [1] it was over 50%; with Magnaporthe grisea it was over 50%; in the experiment with Botrytis cinerea it was over 50%. Also, the pest or weed control at 250 ppm with Plasmopara viticola is under 50%; in experiment [2], over 50%.
On to `CCn1c(-c2c(F)cc(O)cc2F)c(-n2cc(Cl)cn2)cc(Cl)c1=O` [compound 184, 3-chloro-5-(4-chloro-1H-pyrazol-1-yl)-6-(2,6-difluoro-4-hydroxyphenyl)-1-ethylpyridin-2(1H)-one], for which the pest or weed control at 250 µg/mL in the experiment with Phytophthora infestans was under 50%; with Alternaia brassicicola, over 50%; in the experiment on Puccinia recondita, over 50%; in experiment [1], under 50%; in the experiment on Magnaporthe grisea it was under 50%; with Botrytis cinerea, over 50%. Moreover, the pest or weed control at 250 ppm (in the experiment on Plasmopara viticola; in experiment [2]) was over 50% each time.
Consider `CCn1c(-c2c(F)cc(OC(C)=O)cc2F)c(-n2cc(Cl)cn2)cc(Cl)c1=O` [compound 205], for which the pest or weed control at 250 µg/mL in the experiment on Phytophthora infestans is under 50%; with Alternaia brassicicola, over 50%; with Puccinia recondita (in Triticum aestivum) it was over 50%; in experiment [1] (in Hordeum vulgare), under 50%; in the experiment with Magnaporthe grisea, under 50%; with Botrytis cinerea (in Solanum lycopersicum), over 50%. Besides, the pest or weed control at 250 ppm (with Plasmopara viticola; in experiment [2]) was under 50% in each case.
With `CCn1c(-c2c(F)cc(F)cc2F)c(-n2cc(Cl)cn2)cc(OC)c1=O` [compound 225, 5-(4-chloro-1H-pyrazol-1-yl)-1-ethyl-3-methoxy-6-(2,4,6-trifluorophenyl)pyridin-2(1H)-one], the pest or weed control at 250 µg/mL with Phytophthora infestans is under 50%; in the experiment with Alternaia brassicicola, over 50%; with Puccinia recondita, over 50%; in experiment [1], over 50%; with Magnaporthe grisea, under 50%; in the experiment with Botrytis cinerea, under 50%. The pest or weed control at 250 ppm with Plasmopara viticola is over 50%; in experiment [2], under 50%.
